Data from patent US20110224197A1, “PYRIMIDINES AND PYRIDINES USEFUL AS INHIBITORS OF PROTEIN KINASES” (Vertex Pharmaceuticals Incorporated, priority 2008, published 2011).

Test system: CRMP2
Assay: CRMP2 Phosphorylation Assay
Assay type: cell-based, rat
Details: E16 hippocampal neurons treated for seven days
Description: GSK-3 phosphorylation regulates CRMP2 which is involved in the control of axon outgrowth and branching (Yoshimura et al., 2005 Cell, Kim et al. 2006 Neuron). Phosphorylation of CRMP2 by GSK-3 reduces CRMP2 binding to microtubules and thereby reduces axon elongation and branching. Conversely, inhibition of GSK-3, especially at levels that selectively affect TYR residue autophosphorylation, enhances these phenotypes. Compounds are tested in E16 rat hippocampal or cortical neurons to determine the ability to increase the level of axonal branching.
1 mg/ml stock of PDL is diluted into 100 μg/mL in DI water. The glass coverslips are coated for at least 1 hour at 37° C. prior to doing the dissection. PDL is aspirated and the plates are rinsed with PBS and air-dried in hood.
Cortical or hippocampal lobes are combined with 9 mL of Base media (Neurobasal+Pen/Strep) and put on ice. 1 mL of 10× trypsin solution is added and the Mixture is swirled gently. The tissue is then digested via incubation in a 37° C. waterbath for 20 minutes. After 20 minutes, 10 μL/mL DNase (100 μL DNase) is added and the mixture is incubated for another 5 minutes.
The cells are spun at 1000 rpm for 1 minute. The enzyme solution is then removed without removing any of the brain fragments sitting on the bottom. […] The cells are counted in a hemacytometer and seeded at 50,000 cells/well in a 12 well plate. […]

## Cc1nc(-c2ccccc2Cl)nc(Nc2n[nH]c3ncc(F)cc23)c1C [Compound I-37, N-(2-(2-chlorophenyl)-5,6-dimethylpyrhnidin-4-yl)-5-fluoro-1H-pyrazolo[3,4-b]pyridin-3-amine]
  Inhibition of GSK-3 phosphorylation of substrate CRMP-2: correlated with inhibition of GSK-3 pTYR
